{"source": "patent EP0946179B1", "about": "(ELI LILLY AND COMPANY, priority 1996, dated 1997)", "key": {"5-HT1C receptor": {"target": "T1, 5-HT1C receptor (Homo sapiens, UniProt P28335)", "T1 sequence (P28335 33-458)": "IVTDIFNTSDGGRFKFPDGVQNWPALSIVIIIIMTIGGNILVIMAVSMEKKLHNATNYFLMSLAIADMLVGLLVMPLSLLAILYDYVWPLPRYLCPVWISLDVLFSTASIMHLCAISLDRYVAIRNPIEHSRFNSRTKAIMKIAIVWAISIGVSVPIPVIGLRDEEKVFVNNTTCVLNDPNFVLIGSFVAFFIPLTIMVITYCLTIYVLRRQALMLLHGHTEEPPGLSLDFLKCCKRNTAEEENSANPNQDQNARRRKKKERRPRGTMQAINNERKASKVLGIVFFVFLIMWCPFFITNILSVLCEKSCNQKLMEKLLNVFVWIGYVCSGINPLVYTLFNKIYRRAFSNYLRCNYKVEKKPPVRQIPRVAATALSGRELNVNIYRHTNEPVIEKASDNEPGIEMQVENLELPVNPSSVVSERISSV", "assay": "pharmacological studies, 5-HT1C receptor activity"}, "[1]": {"assay": "double-blind multicenter clinical trial, olanzapine versus placebo", "type": "in vivo", "details": "patients randomized to olanzapine or placebo", "description": "A double-blind multicenter clinical trial was designed to assess the safety and efficacy of olanzapine. Patients were randomized to olanzapine or placebo."}, "[2]": {"system": "muscarinic cholinergic receptor", "assay": "pharmacological studies, muscarinic receptor activity"}}, "data": [{"compound": "Cc1cc2c(s1)Nc1ccccc1N=C2N1CCN(C)CC1", "note": "[olanzapine, 2-methyl-4-(4-methyl-1-piperazinyl)-10H-thieno[2,3-b][1,5] benzodiazepine]", "values": [{"measurement": "activity at the 5-HT1C receptor", "setting": "5-HT1C receptor", "value": "active"}, {"measurement": "usefulness for the treatment of autism", "setting": "[1]", "value": "can be useful for the treatment of autism"}, {"measurement": "usefulness for the treatment of mental retardation", "setting": "[1]", "value": "can be useful for the treatment of mental retardation"}, {"measurement": "muscarinic cholinergic receptor activity", "setting": "[2]", "value": "has muscarinic cholinergic receptor activity"}]}]}
